Source: patent publication US11634412B2, “3-phosphoglycerate dehydrogenase inhibitors and uses thereof” (Raze Therapeutics, Inc., priority 2016, dated 2023)

biological target: T1, Full length (FL) 3-Phosphoglycerate Dehydrogenase (PHGDH) (Homo sapiens, UniProt O43175); test: Full length (FL) PHGDH Diaphorase coupled assay (500 uM NAD); type: biochemical; settings: full-length PHGDH 5 nM, 30° C. 60 minutes, resorufin fluorescence
T1 construct: Full length (FL) 3-Phosphoglycerate Dehydrogenase (PHGDH) Diaphorase coupled assay (500 uM NAD)
T1 sequence (O43175 1-533): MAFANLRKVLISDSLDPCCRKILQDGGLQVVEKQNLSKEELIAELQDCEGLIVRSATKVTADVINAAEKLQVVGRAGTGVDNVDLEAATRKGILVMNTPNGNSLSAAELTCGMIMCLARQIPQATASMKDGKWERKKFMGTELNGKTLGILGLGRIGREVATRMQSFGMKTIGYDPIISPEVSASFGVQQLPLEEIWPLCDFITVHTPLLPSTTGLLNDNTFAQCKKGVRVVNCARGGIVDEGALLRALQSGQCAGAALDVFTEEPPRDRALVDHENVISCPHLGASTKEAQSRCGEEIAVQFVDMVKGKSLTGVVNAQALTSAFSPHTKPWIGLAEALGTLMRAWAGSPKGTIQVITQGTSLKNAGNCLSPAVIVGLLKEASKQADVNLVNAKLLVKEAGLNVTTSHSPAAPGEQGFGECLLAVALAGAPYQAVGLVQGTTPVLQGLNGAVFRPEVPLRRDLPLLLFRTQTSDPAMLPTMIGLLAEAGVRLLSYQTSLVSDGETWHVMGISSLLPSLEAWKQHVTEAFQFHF
Experimental: Full length (FL) 3-Phosphoglycerate Dehydrogenase (PHGDH) Diaphorase coupled assay (500 uM NAD)
(§1) PHGDH activity was determined by detecting the NADH produced during the reaction. Diaphorase was used to catalyze the oxidation of NADH with the concomitant reduction of resazurin to the fluorescent product resorufin. Resorufin fluorescence quantitatively reflected the production of NADH by the PHGDH reaction. To drive the forward reaction, two enzymes in the serine synthesis pathway subsequent to PHGDH, Phosphoserine aminotransferase (PSAT1) and phosphoserine phosphatase (PSPH) were also added to the reaction.
Briefly, serial dilution of compounds were incubated in a volume of 20 μL in 384 well plates with the assay mixture containing 5 nM PHGDH, 500 nM PSAT1, 500 nM PSPH, 500 μM NAD^+, 80 uM 3-phosphoglycerate, 1 mM glutamate, 57 uM Resazurin and 0.2 mg/ml Diaphorase in assay buffer containing 50 mM Trisethanoloamine (TEA) pH8.0, 10 mM MgCl2, 0.01% Tween-20 and 0.05% Bovine Serum Albumin (BSA). The plate was then incubated at 30° C. for 60 minutes and resorufin fluorescence was measured at emission wavelength 598 nm following excitation at 525 nm. The positive control consisted of the complete reaction mixture with 4% DMSO and was set to 0% inhibition.

`C[C@H](C(=O)O)c1ccc(C2(NC(=O)c3cc4c(Cl)c(Cl)ccc4n3C)COC2)cc1` (single isomer, unassigned) [I-35 or I-34 e160 peak 1] and `CC(C(=O)O)c1ccc(C2(NC(=O)c3cc4c(Cl)c(Cl)ccc4n3C)COC2)c(Cl)c1` (stereo not drawn) [I-33 e62] fall in the same range of IC50: 0.001 to 1 µM for the first, 0.001 to 1 µM for the second.

`Cn1c(C(=O)N[C@@]2(c3ccc(CC(=O)O)cc3)CCOC2)cc2c(Cl)c(Cl)ccc21` (single isomer, unassigned) [I-108 or I-109 e151 peak 2] and `Cn1c(C(=O)N[C@]2(c3ccc(CC(=O)O)cc3)CCOC2)cc2c(Cl)c(Cl)ccc21` (single isomer, unassigned) [I-109 or I-108 e150 peak 1] fall in the same range of IC50: 0.001 to 1 µM for the first, 0.001 to 1 µM for the second.

`COc1ccc2c(cc(C(=O)NC3(c4ccc(C(CCCO)C(=O)O)cc4)COC3)n2C)c1Cl` (stereo not drawn) [I-11 e72] and `COc1ccc2c(cc(C(=O)NC3(c4ccc(CC(=O)O)cc4)COC3)n2C)c1Cl` [I-103 e39] fall in the same range of IC50: 0.001 to 1 µM for the first, 0.001 to 1 µM for the second.

`COc1ccc2c(cc(C(=O)NC3(c4ccc(C(C)(C)C(=O)O)cc4)COC3)n2C)c1Cl` [I-27 e110] and `Cn1c(C(=O)NC2(c3ccc(C(C)(C)C(=O)O)cc3)COC2)cc2c(Cl)c(Cl)ccc21` [I-36 e107] fall in the same range of IC50: 0.001 to 1 µM for the first, 0.001 to 1 µM for the second.

`Cn1c(C(=O)NC2(c3ccc(C4(C(=O)O)CC4)cc3)COC2)cc2c(Cl)c(Cl)ccc21` [I-28 e108] and `Cn1c(C(=O)NC2(c3ccc(C(=O)O)cc3F)COC2)cc2c(Cl)c(Cl)ccc21` [I-79 e41] fall in the same range of IC50: 0.001 to 1 µM for the first, 0.001 to 1 µM for the second.

First: COc1ccc2c(cc(C(=O)NC3(c4ccc(CC(=O)O)cc4Cl)COC3)n2C)c1Cl [I-32 e64]
Second: COc1cc(CC(=O)O)ccc1C1(NC(=O)c2cc3c(Cl)c(Cl)ccc3n2C)COC1 [I-69 e52]
The IC50 of the first is lower: 0.001 to 1 µM for the first, 5 to 10 µM for the second. The first is the more potent here.

`Cn1c(C(=O)NC2(c3ccc(C(C)(C)C(=O)O)cc3F)COC2)cc2c(Cl)c(Cl)ccc21` [I-37 e109] and `CC(C(=O)O)c1ccc(C2(NC(=O)c3cc4c(Cl)c(Cl)ccc4n3C)COC2)c(F)c1` (stereo not drawn) [I-70 e61] fall in the same range of IC50: 0.001 to 1 µM for the first, 0.001 to 1 µM for the second.

`Cn1c(C(=O)NC2(c3ccc(Cc4nnn[nH]4)cc3)COC2)cc2c(Cl)c(Cl)ccc21` [I-41 e92] and `Cc1cc(CC(=O)O)ccc1C1(NC(=O)c2cc3c(Cl)c(Cl)ccc3n2C)COC1` [I-82 e51] fall in the same range of IC50: 0.001 to 1 µM for the first, 0.001 to 1 µM for the second.

`COc1cc2c(cc(C(=O)NC3(c4ccc(C(=O)O)cc4Cl)COC3)n2C)c(Cl)c1F` [I-44 e76] and `COc1cc2c(cc(C(=O)NC3(c4ccc(C(=O)O)cc4Cl)COC3)n2C)c(Cl)c1C` [I-46 e73] fall in the same range of IC50: 0.001 to 1 µM for the first, 0.001 to 1 µM for the second.

`COc1cc2c(cc(C(=O)NC3(c4ccc(C(=O)O)cc4C)COC3)n2C)c(Cl)c1C` [I-45 e74] and `COc1cc2c(cc(C(=O)NC3(c4ccc(C(=O)O)cc4C)COC3)n2C)c(Cl)c1F` [I-47 e77] fall in the same range of IC50: 0.001 to 1 µM for the first, 0.001 to 1 µM for the second.

`COc1cc2c(cc(C(=O)NC3(c4ccc(C(C)C(=O)O)cc4)COC3)n2C)c(Cl)c1Cl` (stereo not drawn) [I-48 e71] and `COc1cc2c(cc(C(=O)NC3(c4ccc(C(=O)O)cc4C)COC3)n2C)c(Cl)c1Cl` [I-51 e68] fall in the same range of IC50: 0.001 to 1 µM for the first, 0.001 to 1 µM for the second.

`COc1cc2c(cc(C(=O)NC3(c4ccc(C(=O)O)cc4F)COC3)n2C)c(Cl)c1C` [I-50 e75] and `COc1cc2c(cc(C(=O)NC3(c4ccc(C(=O)O)cc4F)COC3)n2C)c(Cl)c1F` [I-56 e78] fall in the same range of IC50: 0.001 to 1 µM for the first, 0.001 to 1 µM for the second.

`COc1ccc2c(cc(C(=O)NC3(c4ccc(C(=O)O)cc4C)COC3)n2C)c1Cl` [I-60 e65] and `COc1ccc2c(cc(C(=O)NC3(c4ccc(C(=O)O)cc4Cl)COC3)n2C)c1Cl` [I-65 e69] fall in the same range of IC50: 0.001 to 1 µM for the first, 0.001 to 1 µM for the second.

`COc1cc2c(cc(C(=O)NC3(c4ccc(CC(=O)O)cc4F)COC3)n2C)c(Cl)c1F` [I-61 e47] and `COc1cc2c(cc(C(=O)NC3(c4ccc(CC(=O)O)cc4F)COC3)n2C)c(Cl)c1C` [I-62 e46] fall in the same range of IC50: 0.001 to 1 µM for the first, 0.001 to 1 µM for the second.

`Cc1ccc2c(cc(C(=O)NC3(c4ccc(CC(=O)O)cc4F)COC3)n2C)c1Cl` [I-63 e44] and `Cn1c(C(=O)NC2(c3ccc(CC(=O)O)cc3F)COC2)cc2c(Cl)c(Cl)ccc21` [I-90 e43] fall in the same range of IC50: 0.001 to 1 µM for the first, 0.001 to 1 µM for the second.

`COc1cc2c(cc(C(=O)NC3(c4ccc(C(=O)O)cc4Cl)COC3)n2C)c(Cl)c1Cl` [I-66 e67] and `COc1cc2c(cc(C(=O)NC3(c4ccc(C(=O)O)cc4F)COC3)n2C)c(Cl)c1Cl` [I-76 e42] fall in the same range of IC50: 0.001 to 1 µM for the first, 0.001 to 1 µM for the second.

`COc1ccc2c(cc(C(=O)NC3(c4ccc(C(=O)O)cc4F)COC3)n2C)c1Cl` [I-75 e66] and `Cc1cc(C(=O)O)ccc1C1(NC(=O)c2cc3c(Cl)c(Cl)ccc3n2C)COC1` [I-83 e50] fall in the same range of IC50: 0.001 to 1 µM for the first, 0.001 to 1 µM for the second.

`Cn1c(C(=O)NC2(c3ccc(CC(=O)O)cc3Cl)COC2)cc2c(Cl)c(Cl)ccc21` [I-84 e49] and `Cn1c(C(=O)NC2(c3ccc(C(=O)O)cc3Cl)COC2)cc2c(Cl)c(Cl)ccc21` [I-85 e48] fall in the same range of IC50: 0.001 to 1 µM for the first, 0.001 to 1 µM for the second.

`COc1cc2c(cc(C(=O)NC3(c4ccc(CC(=O)O)cc4F)COC3)n2C)c(Cl)c1Cl` [I-86 e45] and `COc1ccc2c(cc(C(=O)NC3(c4ccc(S(=O)(=O)NC(C)=O)cc4)COC3)n2C)c1Cl` [I-164 e88] fall in the same range of IC50: 0.001 to 1 µM for the first, 0.001 to 1 µM for the second.

`CCC(=O)NS(=O)(=O)c1ccc(C2(NC(=O)c3cc4c(Cl)c(OC)ccc4n3C)COC2)cc1` [I-161 e164, 4-Chloro-5-methoxy-1-methyl-N-(3-(4-(N-propanoylsulfamoyl)phenyl)-oxetan-3-yl)-1H-indole-2-carboxamide] and `COc1ccc2c(cc(C(=O)NC3(c4ccc(C(=O)NS(C)(=O)=O)cc4)COC3)n2C)c1Cl` [I-162 e165, 4-Chloro-5-methoxy-1-methyl-N-(3-(4-((methylsulfonyl)carbamoyl)-phenyl)oxetan-3-yl)-1H-indole-2-carboxamide] fall in the same range of IC50: 0.001 to 1 µM for the first, 0.001 to 1 µM for the second.

biological target: T1, Full length (FL) 3-Phosphoglycerate Dehydrogenase (PHGDH); test: Full length (FL) PHGDH Diaphorase coupled assay (20 uM NAD); type: biochemical; settings: full-length PHGDH 10 nM, 30° C. 60 minutes, resorufin fluorescence
Experimental: as §1

Compared with `Cn1c(C(=O)NC2(c3ccc(-c4nnn[nH]4)cc3)CCOC2)cc2c(Cl)c(Cl)ccc21` (racemic) [I-128 e148, (±)-4,5-Dichloro-1-methyl-N-[3-[4-(1H-tetrazol-5-yl)phenyl]tetrahydro-furan-3-yl]indole-2-carboxamide], `Cn1c(C(=O)NC2(c3ccc(Br)cc3)CCOC2)cc2c(Cl)c(Cl)ccc21` (racemic) [I-135 e142, (±)-N-[3-(4-Bromophenyl)tetrahydrofuran-3-yl]-4,5-dichloro-1-methyl-indole-2-carboxamide] is higher in IC50: 0.001 to 1 µM for the first, 1 to 5 µM for the second.

`Cn1c(C(=O)NC2(c3ccc(CC(=O)O)cc3)CCOC2)cc2c(Cl)c(Cl)ccc21` (racemic) [I-129 e149, (±)-2-[4-[3-[(4,5-Dichloro-1-methyl-indole-2-carbonyl)amino]tetrahydrofuran-3-yl]phenyl]acetic acid] and `Cn1c(C(=O)NC2(c3ccc(C(=O)O)cc3)CCOC2)cc2c(Cl)c(Cl)ccc21` (racemic) [I-136 e145, (±)-4-[3-[(4,5-Dichloro-1-methyl-indole-2-carbonyl)amino]tetrahydrofuran-3-yl]benzoic acid] fall in the same range of IC50: 0.001 to 1 µM for the first, 0.001 to 1 µM for the second.

`CN1CCC(NC(=O)c2cc3c(Cl)c(Cl)ccc3n2C)(c2ccc(C(=O)O)cc2)C1` (racemic) [I-130 e17] and `Cn1c(C(=O)NC2(c3ccc(C(=O)O)cc3)CCOC2)cc2c(Cl)c(Cl)ccc21` (racemic) [I-137 e141, (±)-4-[3-[(4,5-Dichloro-1-methyl-indole-2-carbonyl)amino]tetrahydrofuran-3-yl]benzoic acid] fall in the same range of IC50: 0.001 to 1 µM for the first, 0.001 to 1 µM for the second.

`Cn1c(C(=O)NC2(c3ccc(C(N)=O)cc3)CCOC2)cc2c(Cl)c(Cl)ccc21` (racemic) [I-131 e144, (±)-N-[3-(4-Carbamoylphenyl)tetrahydrofuran-3-yl]-4,5-dichloro-1-methyl-indole-2-carboxamide] and `Cn1c(C(=O)NC2(c3ccc(C#N)cc3)CCOC2)cc2c(Cl)c(Cl)ccc21` (racemic) [I-134 e143, 4,5-dichloro-N-[3-(4-cyanophenyl)tetrahydrofuran-3-yl]-1-methyl-indole-2-carboxamide] fall in the same range of IC50: 1 to 5 µM for the first, 1 to 5 µM for the second.

First: CNC(=O)NS(=O)(=O)N1CCCC(NC(=O)c2cc3c(Cl)c(Cl)ccc3n2C)(c2cccc(CO)c2)C1 (racemic) [I-138 e16]
Second: CNC(=O)NS(=O)(=O)N1CCCC(NC(=O)c2cc3c(Cl)c(Cl)ccc3n2C)(c2cccc(C(=O)O)c2)C1 (racemic) [I-139 e14]
The IC50 of the first is higher: 5 to 10 µM for the first, 1 to 5 µM for the second.

With `CNC(=O)NS(=O)(=O)N1CCCC(NC(=O)c2cc3c(Cl)c(Cl)ccc3n2C)(c2ccc(C(=O)O)cc2)C1` (racemic) [I-140 e15] the IC50 was 0.001 to 1 µM.
